Measured values reported in ChEMBL document CHEMBL1201862, “PubChem BioAssay data set” (2004).
Active and inactive are the calls of the source.

Legend:
[1] = Dd2 parasite growth inhibition in erythrocytes – SYBR Green, dry powder samples, set 9, dose response (AID 1159568); assay type: functional, cell-based
Fatty acid synthase [2] = target: T1, Fatty acid synthase (Homo sapiens, UniProt P49327); experiment: inhibition of human FAS-TE enzyme activity – biochemical, kinetic fluorescence intensity, dose response (AID 624326); assay type: functional;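 also: rate of fluorescence rise from hydrolysis of a fluorogenic O-methyl fluorescein ester substrate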
Fatty acid synthase [3] = target: T1, Fatty acid synthase; experiment: inhibition of human FAS-TE enzyme activity – biochemical, endpoint fluorescence intensity, uHTS hits, dose response (AID 624327); assay type: functional;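 also: fluorescence from hydrolysis of an O-methyl fluorescein acyl ester substrate by the enzyme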
[4] = NIH-3T3 fibroblast cytotoxicity, dose response, cytotoxicity control, cell-based, fluorescence, Alamar Blue, secondary assay (AID 2327); assay type: functional;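 also: NIH-3T3 mouse fibroblasts cultured with fluconazole at 8 µg/mL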
[5] = fluconazole-exposed Candida albicans growth modulators – fluorescence, retest, confirmation (AID 2467); assay type: functional, cell-based
[6] = target: T2, RNA-binding protein pos-1 (Caenorhabditis elegans, UniProt G5EF15); experiment: disruptors of C. elegans POS-1 RNA interaction – biochemical, fluorescence polarization, dose response (AID 1964);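 also: purified POS-1 fused to maltose binding protein made in E. coli; potency of compounds blocking POS-1 binding to fluorescent RNA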
T2 sequence (G5EF15 whole entry): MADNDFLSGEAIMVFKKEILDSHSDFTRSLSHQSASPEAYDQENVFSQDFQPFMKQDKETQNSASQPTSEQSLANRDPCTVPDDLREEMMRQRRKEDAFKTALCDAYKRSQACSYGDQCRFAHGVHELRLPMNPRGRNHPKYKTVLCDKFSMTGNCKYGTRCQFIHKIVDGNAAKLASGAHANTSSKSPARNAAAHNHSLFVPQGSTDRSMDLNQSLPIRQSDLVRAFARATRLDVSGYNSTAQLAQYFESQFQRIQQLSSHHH

[7] = target: T3, Zinc finger protein mex-5 (Caenorhabditis elegans, UniProt Q9XUB2); experiment: potency of MEX-5 RNA-binding blockers – biochemical, C. elegans, fluorescence polarization, dose response (AID 1960)
T3 sequence (Q9XUB2 whole entry): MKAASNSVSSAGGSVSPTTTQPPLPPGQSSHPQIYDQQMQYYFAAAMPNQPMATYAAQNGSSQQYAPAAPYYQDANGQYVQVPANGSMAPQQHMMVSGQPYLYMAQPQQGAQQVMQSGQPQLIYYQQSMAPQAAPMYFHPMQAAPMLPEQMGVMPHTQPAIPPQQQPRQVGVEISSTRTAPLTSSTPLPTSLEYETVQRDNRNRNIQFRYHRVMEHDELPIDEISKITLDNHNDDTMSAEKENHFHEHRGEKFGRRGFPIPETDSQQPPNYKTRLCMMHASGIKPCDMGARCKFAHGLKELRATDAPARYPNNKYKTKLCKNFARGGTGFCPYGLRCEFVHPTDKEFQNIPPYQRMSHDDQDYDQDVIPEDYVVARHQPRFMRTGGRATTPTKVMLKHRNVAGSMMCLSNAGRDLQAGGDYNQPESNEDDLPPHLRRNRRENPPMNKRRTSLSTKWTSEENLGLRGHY

Leucine aminopeptidase = target: T4, Leucine aminopeptidase (Plasmodium falciparum 3D7, UniProt Q8IL11); experiment: P. falciparum M17LAP inhibitors, primary screen, biochemical, fluorogenic H-Leu-NHMec substrate, 1536-well (AID 1619); assay type: functional
T4 sequence (Q8IL11 whole entry): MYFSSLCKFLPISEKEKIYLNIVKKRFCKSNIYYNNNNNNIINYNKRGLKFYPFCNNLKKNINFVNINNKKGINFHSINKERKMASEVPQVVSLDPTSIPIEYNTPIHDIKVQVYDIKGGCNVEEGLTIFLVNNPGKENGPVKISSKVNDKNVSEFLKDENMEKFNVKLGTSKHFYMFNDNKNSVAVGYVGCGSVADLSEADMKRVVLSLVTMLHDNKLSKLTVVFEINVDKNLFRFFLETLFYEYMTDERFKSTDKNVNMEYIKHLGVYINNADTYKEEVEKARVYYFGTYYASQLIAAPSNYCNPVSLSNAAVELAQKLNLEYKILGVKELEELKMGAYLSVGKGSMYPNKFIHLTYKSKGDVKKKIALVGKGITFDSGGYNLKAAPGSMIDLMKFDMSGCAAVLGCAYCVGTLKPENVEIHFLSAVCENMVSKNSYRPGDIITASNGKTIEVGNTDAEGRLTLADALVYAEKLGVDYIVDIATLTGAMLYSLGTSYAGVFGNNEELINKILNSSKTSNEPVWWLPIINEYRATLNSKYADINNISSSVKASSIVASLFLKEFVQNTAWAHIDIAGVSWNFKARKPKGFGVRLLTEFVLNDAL

[8] = target: FAD-linked sulfhydryl oxidase ALR (Homo sapiens, UniProt P55789); experiment: ALR-catalysed DTT oxidation blockers – biochemical, H2O2 detection, luminescence, cherry-pick, dose response (AID 493248)
Streptococcus = experiment: GAS UMAA2166 growth inhibition – luminescence, BacTiterGlo, counter-screen for streptokinase expression inhibitor project, dose response (AID 1915); assay type: functional, organism-based;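 also: potency for reduction of bacterial viability or growth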
[9] = test system: Streptococcus sp. 'group A'; experiment: Streptococcus pyogenes SK(-)GAS viability under kanamycin – luminescence, BacTiterGlo, confirmation, counter-screen for streptokinase expression inhibitor project, dose response (AID 1900); assay type: functional, organism-based
Streptokinase A = target: T5, Streptokinase A (Streptococcus pyogenes serotype M1, UniProt P10520); experiment: viability-normalized secreted streptokinase activity reduction – plasminogen activation absorbance, OD405, dose response (AID 1914); assay type: functional, Streptococcus pyogenes M1 GAS;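 also: secreted streptokinase activity via plasminogen activation per viability signal from cell pellet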
T5 sequence (P10520 whole entry): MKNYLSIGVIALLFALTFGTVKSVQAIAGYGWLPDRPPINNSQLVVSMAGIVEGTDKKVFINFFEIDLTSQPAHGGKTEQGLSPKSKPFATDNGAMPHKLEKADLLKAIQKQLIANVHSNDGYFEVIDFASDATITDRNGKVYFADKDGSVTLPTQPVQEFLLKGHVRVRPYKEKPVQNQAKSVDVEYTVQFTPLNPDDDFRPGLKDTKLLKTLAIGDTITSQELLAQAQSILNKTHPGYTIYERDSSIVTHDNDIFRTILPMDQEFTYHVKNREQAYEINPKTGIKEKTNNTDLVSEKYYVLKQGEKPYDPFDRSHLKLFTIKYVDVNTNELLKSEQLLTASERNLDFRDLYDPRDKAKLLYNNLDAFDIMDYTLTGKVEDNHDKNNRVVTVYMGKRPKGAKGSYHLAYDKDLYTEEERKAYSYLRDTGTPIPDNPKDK

[10] = microbe, parasite or virus in culture; assay type: functional; conditions: Mycobacterium tuberculosis
Large T antigen = Large T antigen (Simian virus 40, UniProt P03070); assay type: functional, Betapolyomavirus macacae;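 also: Confirmatory-stage PubChem screen for compounds that inhibit SV40 T antigen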
[11] = target: T6, Carboxy-terminal domain RNA polymerase II polypeptide A small phosphatase 1 (Homo sapiens, UniProt Q9GZU7); experiment: CTDSP1 inhibitors, concentration-response, biochemical, absorbance readout, ultra-high-throughput screen actives (AID 540297); assay type: functional
T6 sequence (Q9GZU7 whole entry): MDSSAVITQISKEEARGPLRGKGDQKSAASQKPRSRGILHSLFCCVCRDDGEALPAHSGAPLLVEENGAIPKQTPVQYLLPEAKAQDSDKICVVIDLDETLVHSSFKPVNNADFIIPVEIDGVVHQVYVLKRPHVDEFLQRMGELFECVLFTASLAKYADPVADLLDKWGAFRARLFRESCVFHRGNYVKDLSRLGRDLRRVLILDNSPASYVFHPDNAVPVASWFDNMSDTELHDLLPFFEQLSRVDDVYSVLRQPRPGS

T1 sequence (P49327 whole entry): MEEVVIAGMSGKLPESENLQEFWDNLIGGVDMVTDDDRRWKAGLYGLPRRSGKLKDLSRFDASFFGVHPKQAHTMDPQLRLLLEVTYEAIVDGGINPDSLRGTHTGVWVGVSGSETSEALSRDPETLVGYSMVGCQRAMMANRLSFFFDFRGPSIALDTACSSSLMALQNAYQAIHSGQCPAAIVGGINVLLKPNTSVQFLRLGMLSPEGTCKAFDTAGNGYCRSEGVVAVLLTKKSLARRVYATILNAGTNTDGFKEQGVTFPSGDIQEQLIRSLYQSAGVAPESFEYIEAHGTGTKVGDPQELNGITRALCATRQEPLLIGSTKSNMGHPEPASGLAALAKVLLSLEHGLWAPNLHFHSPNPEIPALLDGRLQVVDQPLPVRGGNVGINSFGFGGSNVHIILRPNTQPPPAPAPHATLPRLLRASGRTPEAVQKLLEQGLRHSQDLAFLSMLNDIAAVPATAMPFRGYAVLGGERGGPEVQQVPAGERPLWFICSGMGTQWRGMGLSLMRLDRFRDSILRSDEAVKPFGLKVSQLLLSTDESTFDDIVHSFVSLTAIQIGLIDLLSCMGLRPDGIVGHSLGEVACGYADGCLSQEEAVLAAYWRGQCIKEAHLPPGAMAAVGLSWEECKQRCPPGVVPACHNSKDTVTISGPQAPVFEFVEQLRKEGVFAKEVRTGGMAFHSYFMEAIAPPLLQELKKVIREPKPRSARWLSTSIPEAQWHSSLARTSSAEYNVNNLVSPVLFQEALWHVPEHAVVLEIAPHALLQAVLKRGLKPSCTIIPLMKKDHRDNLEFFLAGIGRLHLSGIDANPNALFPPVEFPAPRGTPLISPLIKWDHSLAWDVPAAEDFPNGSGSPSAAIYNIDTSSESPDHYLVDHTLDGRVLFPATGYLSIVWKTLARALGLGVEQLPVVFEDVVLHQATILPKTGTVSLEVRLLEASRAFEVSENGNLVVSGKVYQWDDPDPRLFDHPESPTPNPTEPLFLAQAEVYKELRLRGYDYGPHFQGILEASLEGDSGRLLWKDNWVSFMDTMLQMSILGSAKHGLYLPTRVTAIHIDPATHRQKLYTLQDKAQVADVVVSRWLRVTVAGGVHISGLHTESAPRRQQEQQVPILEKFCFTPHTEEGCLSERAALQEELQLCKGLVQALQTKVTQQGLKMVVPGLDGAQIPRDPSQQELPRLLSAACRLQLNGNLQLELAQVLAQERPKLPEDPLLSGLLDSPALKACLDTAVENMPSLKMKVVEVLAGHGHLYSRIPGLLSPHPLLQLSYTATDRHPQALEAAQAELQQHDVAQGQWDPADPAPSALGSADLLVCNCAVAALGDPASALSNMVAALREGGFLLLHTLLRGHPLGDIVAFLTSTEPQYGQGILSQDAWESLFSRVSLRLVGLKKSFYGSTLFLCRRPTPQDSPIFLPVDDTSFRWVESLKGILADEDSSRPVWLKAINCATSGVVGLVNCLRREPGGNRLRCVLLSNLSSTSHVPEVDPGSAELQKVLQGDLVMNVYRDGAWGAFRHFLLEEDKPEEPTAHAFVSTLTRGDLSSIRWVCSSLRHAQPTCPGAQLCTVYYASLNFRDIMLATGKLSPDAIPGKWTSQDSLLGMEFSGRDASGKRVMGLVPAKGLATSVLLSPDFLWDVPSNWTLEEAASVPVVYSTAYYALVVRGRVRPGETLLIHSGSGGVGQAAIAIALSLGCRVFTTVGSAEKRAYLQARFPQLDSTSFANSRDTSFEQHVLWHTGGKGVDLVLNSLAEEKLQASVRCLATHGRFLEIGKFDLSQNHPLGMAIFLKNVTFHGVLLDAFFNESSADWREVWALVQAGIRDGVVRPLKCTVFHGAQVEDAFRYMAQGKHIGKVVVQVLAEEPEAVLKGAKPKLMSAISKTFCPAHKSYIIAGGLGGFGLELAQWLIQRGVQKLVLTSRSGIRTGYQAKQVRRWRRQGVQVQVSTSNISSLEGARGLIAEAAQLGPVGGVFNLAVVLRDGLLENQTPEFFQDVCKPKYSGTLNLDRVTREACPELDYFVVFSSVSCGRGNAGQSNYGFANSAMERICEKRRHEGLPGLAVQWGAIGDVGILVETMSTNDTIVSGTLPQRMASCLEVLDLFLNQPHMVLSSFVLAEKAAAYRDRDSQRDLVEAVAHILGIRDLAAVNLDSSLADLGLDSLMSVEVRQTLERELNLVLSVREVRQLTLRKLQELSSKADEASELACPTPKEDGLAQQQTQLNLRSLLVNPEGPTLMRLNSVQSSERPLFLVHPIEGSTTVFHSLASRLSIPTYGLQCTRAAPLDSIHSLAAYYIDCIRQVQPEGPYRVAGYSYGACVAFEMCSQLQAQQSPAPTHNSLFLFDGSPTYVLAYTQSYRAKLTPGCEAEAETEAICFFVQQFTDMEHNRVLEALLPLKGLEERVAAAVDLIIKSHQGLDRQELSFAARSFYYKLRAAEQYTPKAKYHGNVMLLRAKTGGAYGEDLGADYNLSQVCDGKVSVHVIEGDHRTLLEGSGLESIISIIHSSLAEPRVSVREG
Large T antigen, sequence (P03070 whole entry, the tested form may be a part): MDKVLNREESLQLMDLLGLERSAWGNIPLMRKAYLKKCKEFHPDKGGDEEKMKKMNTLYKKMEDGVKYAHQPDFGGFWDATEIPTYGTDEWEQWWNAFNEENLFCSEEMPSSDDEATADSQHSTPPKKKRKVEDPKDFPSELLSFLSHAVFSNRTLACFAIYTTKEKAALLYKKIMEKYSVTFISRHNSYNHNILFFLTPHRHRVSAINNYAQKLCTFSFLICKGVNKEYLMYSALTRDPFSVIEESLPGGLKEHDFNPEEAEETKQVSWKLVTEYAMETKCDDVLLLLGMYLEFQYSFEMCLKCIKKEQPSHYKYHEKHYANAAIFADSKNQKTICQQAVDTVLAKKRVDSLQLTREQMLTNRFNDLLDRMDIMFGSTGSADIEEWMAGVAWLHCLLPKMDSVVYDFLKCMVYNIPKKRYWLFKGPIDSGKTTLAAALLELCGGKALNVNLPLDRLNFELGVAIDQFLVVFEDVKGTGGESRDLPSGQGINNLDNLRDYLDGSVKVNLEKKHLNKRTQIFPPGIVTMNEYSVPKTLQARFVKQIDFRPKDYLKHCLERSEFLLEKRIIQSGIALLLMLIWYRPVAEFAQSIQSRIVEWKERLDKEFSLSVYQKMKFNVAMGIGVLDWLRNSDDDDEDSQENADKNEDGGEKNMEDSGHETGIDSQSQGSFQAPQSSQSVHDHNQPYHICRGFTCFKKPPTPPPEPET
FAD-linked sulfhydryl oxidase ALR, sequence (P55789 whole entry): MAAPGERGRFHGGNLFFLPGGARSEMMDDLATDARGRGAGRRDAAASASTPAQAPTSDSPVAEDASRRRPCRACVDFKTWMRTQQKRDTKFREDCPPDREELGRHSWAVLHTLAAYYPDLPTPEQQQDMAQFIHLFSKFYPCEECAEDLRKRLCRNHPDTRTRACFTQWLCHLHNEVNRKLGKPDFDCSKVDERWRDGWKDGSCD

SMILES: C[C@@H]1CCCCO[C@@H](CN(C)S(=O)(=O)c2ccc(F)cc2)[C@H](C)CN([C@@H](C)CO)C(=O)c2cc(N(C)C)ccc2O1
- AC50 [1]: 7.31 µM (active)

SMILES: Cc1cccc(N2CCN(C(=O)COc3ccc4ccc(=O)oc4c3)CC2)c1C
- IC50 (Fatty acid synthase [2]): 5.23 µM (active)
- IC50 (Fatty acid synthase [3]): 3.84 µM (active)

SMILES: CN=C(S)N1N=C(c2ccccc2)CC1c1ccccc1Cl (stereo unspecified)
- EC50 [4]: > 160 µM (inactive)
- EC50 [5]: > 38 µM (not active)

SMILES: O=C(O)c1ccc(-n2cccc2)cc1O
- EC50 [6]: > 300 µM (not active)
- EC50 [7]: > 300 µM (not active)

SMILES: CCN(CC)c1ccc(NC(=O)Cn2cc3c(n2)CCC(C)C3)c(C)c1 (stereo unspecified)
- IC50 (Leucine aminopeptidase): 6.41 µM (active)
- AC50 [8]: 48.8 µM (active)

SMILES: CCN(C(=O)COC(=O)c1cc([N+](=O)[O-])ccc1N1CCOCC1)C1CCCCC1
- IC50 (Fatty acid synthase [2]): 4.08 µM (active)
- IC50 (Fatty acid synthase [3]): 1.13 µM (active)

SMILES: O=C(CNc1ccccc1F)N/N=C/C1CC=CCC1 (stereo unspecified)
- EC50 [4]: > 160 µM (inactive)
- EC50 [5]: > 38 µM (not active)

SMILES: Cc1nn(C)c(C)c1CN(C)C(=O)C1c2ccccc2Oc2ccccc21
- EC50 [6]: 15.5 µM (active)
- EC50 [7]: 9.86 µM (active)

SMILES: C[C@H](CO)N1C[C@H](C)[C@H](CN(C)S(=O)(=O)c2ccccc2)OCCCC[C@H](C)Oc2ccc(NC(=O)Nc3ccc4c(c3)OCO4)cc2C1=O
- AC50 [1]: 8.9 µM (active)

SMILES: O=C(Cc1ccccn1)N1CC2(C1)[C@H](c1ccccc1)[C@H](CO)N2C(=O)c1ccncc1
- AC50 [1]: 30 µM (active)

SMILES: CCOC(=O)c1cc2c(=O)n3ccccc3nc2n(C(C)C)/c1=N\C(=O)c1ccncc1
- EC50 [6]: > 300 µM (not active)
- EC50 [7]: > 300 µM (not active)

SMILES: Cc1cccc(C2CC3(CC(C)(C)N=C(S)N3)Oc3cc(O)ccc32)c1 (stereo unspecified)
- EC50 [4]: > 150 µM (inactive)
- EC50 [5]: 2.44 µM (active)

SMILES: N=C(N)N/N=C1C=C/C(=N\NC(N)=S)C=C\1 [AMBAZONE]
- EC50 [6]: 76.5 µM (active)
- EC50 (Streptococcus): 0.35 µM (active)
- EC50 [9]: < 0.06 µM (active)
- EC50 (Streptokinase A): > 150 µM (not active)
- CC50 [10]: > 40 µM (active)
- IC50 (Large T antigen): 13.7 µM (active)
- EC50 [7]: 9.73 µM (active)

SMILES: Cc1ccc(NC(=O)CN2C(=O)CSc3ccc(S(=O)(=O)N4CCCCC4)cc32)cc1
- IC50 [11]: 4.3 µM (active)
- IC50 (Fatty acid synthase [2]): 9.65 µM (active)
- IC50 (Fatty acid synthase [3]): 14.9 µM (active)
